Source: publication PMC3020970, “K70Q Adds High-Level Tenofovir Resistance to “Q151M Complex” HIV Reverse Transcriptase through the Enhanced Discrimination Mechanism” (PLoS ONE, 2011)
Where two headings read alike, the source gives them in different places.

Key:
[1] = system: HIV-1 Q151Mc; details: cited from earlier work; for Increase in resistance: Q151Mc
[2] = system: HIV-1 WT; assay: Single-cycle drug susceptibility assay (MAGIC-5 cells), recombinant WT clone; type: cell-based; details: Human immunodeficiency virus 1, Table S2
Protocol: (§1) The NL4-3-based molecular clone was constructed by replacing the pol-coding region with the HIV-1 BH10 strain. […] Each molecular clone was transfected into COS-7 cells. Cells were grown for 48 h, and culture supernatants were harvested and stored at −80°C until use.
(§2) Susceptibilities to various RT inhibitors were determined using the MAGIC-5 cells which are HeLa cells stably transfected with a β-galactosidase gene under the control of an HIV long terminal repeat promoter, and with vectors that express the CD4 receptor and the CCR5 co-receptor under the control of the CMV promoter as described previously. Briefly, MAGIC-5 cells were infected with diluted virus stock (100 blue forming units) in the presence of increasing concentrations of RT inhibitors, cultured for 48 h, fixed, and stained with X-Gal (5-bromo-4-chloro-3-indolyl-β-D-galacto-pyranoside). The stained cells were counted under a light microscope.

[3] = system: HIV-1 Q151Mc/K70G; assay: Single-cycle drug susceptibility assay (MAGIC-5 cells); type: cell-based; details: for EC50: Human immunodeficiency virus 1, MAGIC-5, Q151Mc/K70G; for Fold increase in EC50 compared to HIV-1 Q151Mc: Q151Mc/K70G vs Q151Mc
Protocol: as §1, §2

[4] = system: HIV-1 K70G; assay: as above; type: cell-based; details: for EC50: Human immunodeficiency virus 1, MAGIC-5, K70G; for Fold increase in EC50 compared to HIV-1 WT: K70G vs WT
Protocol: as §1, §2

[5] = system: HIV-1 K70R; assay: as above; type: cell-based; details: for EC50: Human immunodeficiency virus 1, MAGIC-5, K70R; for Fold increase in EC50 compared to HIV-1 WT: K70R vs WT
Protocol: as §1, §2

[6] = system: HIV-1 K70T; assay: as above; type: cell-based; details: for EC50: Human immunodeficiency virus 1, MAGIC-5, K70T; for Fold increase in EC50 compared to HIV-1 WT: K70T vs WT
Protocol: as §1, §2

[7] = system: HIV-1 Q151Mc; assay: as above; type: cell-based; details: Human immunodeficiency virus 1, MAGIC-5
Protocol: as §1, §2

[8] = system: HIV-1 K70E; assay: as above; type: cell-based; details: for EC50: Human immunodeficiency virus 1, MAGIC-5, K70E; for Fold increase in EC50 compared to HIV-1 WT: K70E vs WT
Protocol: as §1, §2

[9] = system: HIV-1 Q151Mc/K70N; assay: as above; type: cell-based; details: for EC50: Human immunodeficiency virus 1, MAGIC-5, Q151Mc/K70N; for Fold increase in EC50 compared to HIV-1 Q151Mc: Q151Mc/K70N vs Q151Mc
Protocol: as §1, §2

[10] = system: HIV-1 K70Q; assay: as above; type: cell-based; details: for EC50: Human immunodeficiency virus 1, MAGIC-5, K70Q
Protocol: as §1, §2

[11] = system: HIV-1 Q151Mc/K70E; assay: as above; type: cell-based; details: for EC50: Human immunodeficiency virus 1, MAGIC-5, Q151Mc/K70E; for Fold increase in EC50 compared to HIV-1 Q151Mc: Q151Mc/K70E vs Q151Mc
Protocol: as §1, §2

[12] = system: HIV-1 Q151Mc/K70Q; assay: as above; type: cell-based; details: for EC50: Human immunodeficiency virus 1, MAGIC-5, Q151Mc/K70Q
Protocol: as §1, §2

[13] = system: HIV-1 Q151Mc/K70R; assay: as above; type: cell-based; details: for EC50: Human immunodeficiency virus 1, MAGIC-5, Q151Mc/K70R; for Fold increase in EC50 compared to HIV-1 Q151Mc: Q151Mc/K70R vs Q151Mc
Protocol: as §1, §2

[14] = system: HIV-1 Q151Mc/K70T; assay: as above; type: cell-based; details: for EC50: Human immunodeficiency virus 1, MAGIC-5, Q151Mc/K70T; for Fold increase in EC50 compared to HIV-1 Q151Mc: Q151Mc/K70T vs Q151Mc
Protocol: as §1, §2

[15] = system: HIV-1 K70N; assay: as above; type: cell-based; details: for EC50: Human immunodeficiency virus 1, MAGIC-5, K70N; for Fold increase in EC50 compared to HIV-1 WT: K70N vs WT
Protocol: as §1, §2

[16] = system: HIV-1 clinical isolate 1 (Q151Mc-containing); assay: Single-cycle drug susceptibility assay (MAGIC-5 cells), clinical isolate 1; type: cell-based; details: Human immunodeficiency virus 1; clinical isolate 1, MAGIC-5 cells
Protocol: (§3) HIV was isolated from fresh plasma immediately after collection of clinical samples from study participants at the outpatient clinic of the AIDS Clinical Center (ACC), International Medical Center of Japan. The Institutional Review Board approved this study (IMCJ-H13-80) and a written consent was obtained from all participants.
as §2

[17] = system: HIV-1 NL4-3 strain (WT); assay: microbe, parasite or virus in culture; type: cell-based; details: Human immunodeficiency virus 1, NL43; WT, MAGIC-5 cells, Table S1; read-out: EC50
Protocol: as §2

[18] = system: HIV-1 clinical isolate 2 (Q151Mc + K70Q); assay: Single-cycle drug susceptibility assay (MAGIC-5 cells), clinical isolate 2; type: cell-based; details: Human immunodeficiency virus 1; clinical isolate 2, MAGIC-5 cells
Protocol: as §3, §2

[19] = biological target: T1, HIV-1 RT Q151Mc (Human immunodeficiency virus type 1 group M subtype B, UniProt P03366, A661V/F676L/F715Y/Q750M/V674I); assay: ATP-dependent rescue assay; type: biochemical
T1 construct: made in house; host or cells: Escherichia coli BL21
Protocol: (§4) Template/primer (T31/P18) terminated with TFV (T/PTFV) was prepared as described in Michailidis et al. 20 nM of T/PTFV was incubated at 37°C with HIV-1 RT (60 nM), either at various concentrations of ATP (0–7 mM) for 30 minutes, or for various times (0–120 minutes) with 3.5 mM ATP, in RT buffer containing 50 mM Tris-HCl, pH 7.8, and 50 mM NaCl, and 10 mM MgCl2. […] Reactions were quenched with 100% formamide containing traces of bromophenol blue and analyzed as described above. The dissociation constants (Kd) of the various enzymes for ATP used in the rescue reactions were determined by fitting the rescue data at various ATP concentrations, using non-linear regression fitting to hyperbola.

[20] = biological target: T2, HIV-1 RT K70Q (Human immunodeficiency virus type 1 group M subtype B, UniProt P03366, K669Q); assay: ATP-dependent rescue assay; type: biochemical
T2 construct: made in house; host or cells: Escherichia coli BL21
Protocol: as §4

[21] = biological target: T3, HIV-1 RT K70Q/Q151Mc (Human immunodeficiency virus type 1 group M subtype B, UniProt P03366, A661V/F676L/F715Y/K669Q/Q750M/V674I); assay: ATP-dependent rescue assay; type: biochemical
T3 construct: made in house; host or cells: Escherichia coli BL21
Protocol: as §4

[22] = biological target: T4, HIV-1 RT WT (Human immunodeficiency virus type 1 group M subtype B, UniProt P03366); assay: ATP-dependent rescue assay; type: biochemical; details: rescue of TFV-terminated primer, 30 minutes, read-out: apparent KD-ATP
T4 construct: made in house; host or cells: Escherichia coli BL21
Protocol: as §4

[23] = system: HIV-1 RT Q151Mc; assay: ATP-dependent rescue assay; type: biochemical; details: WT RT vs Q151Mc RT, TFV-terminated primers, 3.5 mM ATP
Protocol: as §4

[24] = system: HIV-1 RT K70Q; assay: ATP-dependent rescue assay; type: biochemical; details: WT RT vs K70Q RT, TFV-terminated primers, 3.5 mM ATP
Protocol: as §4

[25] = system: HIV-1 RT K70Q/Q151Mc; assay: ATP-dependent rescue assay; type: biochemical; details: WT RT vs K70Q/Q151Mc RT, TFV-terminated primers, 3.5 mM ATP
Protocol: as §4

## Nc1nc(NC2CC2)c2ncn([C@H]3C=C[C@@H](CO)C3)c2n1 [ABC, abacavir]
[1]; Q151M plus the four associated mutations ref 17, 18, 19, 20, 21
  Resistance: 5 fold
[2]
  EC50: 1.8 ± 0.22 µM
[3]
  EC50: 35 ± 2.7 µM
  Fold increase in EC50 compared to HIV-1 Q151Mc: (2.5) fold
[4]
  EC50: 6.6 ± 0.29 µM
  Fold increase in EC50 compared to HIV-1 WT: (3.7) fold
[5]
  EC50: 2.8 ± 0.31 µM
  Fold increase in EC50 compared to HIV-1 WT: (1.6) fold
[6]
  EC50: 2.6 ± 0.21 µM
  Fold increase in EC50 compared to HIV-1 WT: (1.4) fold
[7]
  EC50: 15 ± 2.1 µM
[8]
  EC50: 7.3 ± 0.12 µM
  Fold increase in EC50 compared to HIV-1 WT: (4.1) fold
[9]
  EC50: 16 ± 2.1 µM
  Fold increase in EC50 compared to HIV-1 Q151Mc: (1.1) fold
[10]
  EC50: 3.5 ± 0.6 µM
[10]; K70Q vs WT
  Fold increase in EC50 compared to HIV-1 WT: (1.9) fold
[11]
  EC50: 34 ± 2.1 µM
  Fold increase in EC50 compared to HIV-1 Q151Mc: (2.3) fold
[12]
  EC50: 24 ± 2.9 µM
[12]; Q151Mc/K70Q vs Q151Mc
  Fold increase in EC50 compared to HIV-1 Q151Mc: (1.6) fold
[13]
  EC50: 14 ± 1 µM
  Fold increase in EC50 compared to HIV-1 Q151Mc: (0.9) fold
[14]
  EC50: 25 ± 2.3 µM
  Fold increase in EC50 compared to HIV-1 Q151Mc: (1.7) fold
[15]
  EC50: 3.2 ± 0.3 µM
  Fold increase in EC50 compared to HIV-1 WT: (1.8) fold
[16]
  EC50: 16.3 ± 2.52 µM
[17]
  EC50: 1.6 ± 0.46 µM
[18]
  EC50: 24.7 ± 2.89 µM

## Nc1ncnc2c1ncn2[C@@H]1O[C@H](COP(=O)(O)OP(=O)(O)OP(=O)(O)O)[C@@H](O)[C@H]1O [ATP, adenosine triphosphate]
[19]
  Kd: 2300 µM
[20]
  Kd: 700 µM
[21]
  Kd: 3100 µM
[22]
  Kd: 400 µM

## C[C@H](Cn1cnc2c(N)ncnc21)OCP(=O)(O)O [TFV, tenofovir]
[1]; Miller et al. ref 22
  Increase in resistance: 1.8 fold
[1]; Smith et al. ref 23
  Increase in resistance: 3.6 fold
[23]
  ATP-based rescue activity of WT RT, fold faster than mutant RT: 2.5 fold
[24]
  ATP-based rescue activity of WT RT, fold faster than mutant RT: 1.5 fold
[25]
  ATP-based rescue activity of WT RT, fold faster than mutant RT: 3 fold

## O=c1[nH]cnc2c1ncn2[C@H]1CC[C@@H](CO)O1 [ddI, didanosine]
[2]
  EC50: 2.4 ± 0.26 µM
[3]
  EC50: 59 ± 5 µM
  Fold increase in EC50 compared to HIV-1 Q151Mc: (1.3) fold
[4]
  EC50: 16 ± 1.5 µM
  Fold increase in EC50 compared to HIV-1 WT: (6.7) fold
[5]
  EC50: 3.3 ± 0.29 µM
  Fold increase in EC50 compared to HIV-1 WT: (1.4) fold
[6]
  EC50: 8.9 ± 0.31 µM
  Fold increase in EC50 compared to HIV-1 WT: (3.7) fold
[7]
  EC50: 45 ± 1 µM
[8]
  EC50: 13 ± 3.5 µM
  Fold increase in EC50 compared to HIV-1 WT: (5.4) fold
[9]
  EC50: 109 ± 4.4 µM
  Fold increase in EC50 compared to HIV-1 Q151Mc: (2.4) fold
[10]
  EC50: 12 ± 1.7 µM
[11]
  EC50: 30 ± 1.7 µM
  Fold increase in EC50 compared to HIV-1 Q151Mc: (0.7) fold
[12]
  EC50: 108 ± 2.5 µM
[13]
  EC50: 53 ± 3.1 µM
  Fold increase in EC50 compared to HIV-1 Q151Mc: (1.2) fold
[14]
  EC50: 13 ± 1.5 µM
  Fold increase in EC50 compared to HIV-1 Q151Mc: (0.3) fold
[15]
  EC50: 3.7 ± 0.32 µM
  Fold increase in EC50 compared to HIV-1 WT: (1.5) fold
[16]
  EC50: 29.3 ± 3.06 µM
[17]
  EC50: 2.5 ± 0.35 µM
[18]
  EC50: > 100 µM
